# Source: patent US10398697B2, “Solid solution comprising (6S)-5-methyl tetrahydrofolic acid or salt thereof, and preparation and use thereof” (priority 2014, dated 2019)
# Read-outs that look alike come from different tables or passages of the source.
# Legend:
# mice [1] = test: Single dose toxicity of JK1303, kidney findings after 14 days; assay type: in vivo; conditions: 14 days after a single dose of 1000 mg/kg
# mice [2] = test: Acute toxicity study of JK12A; assay type: in vivo; conditions: dose of 2000 mg/kg
# [3] = system: T lymphocyte proliferation; test: T lymphocyte proliferation, stimulus with Con A (CPM); assay type: cell-based
# T lymphocyte = test: Cell survival rate (OD) of lymphocytes with JK12A; assay type: cell-based
# mice [4] = conditions: after harmful impurities eliminated by the technology of the invention
# [5] = acute toxicity test data published at present; cited from earlier work
# [6] = Concentration determined 0.164 M
# [7] = Concentration determined 0.41 M
# [8] = Concentration determined 1.024 M
# [9] = Concentration determined 2.56 M
# [10] = Concentration determined 16.0 M
# [11] = Concentration determined 100.000 µM
# [12] = Amount of VC 0, day 0, 25° C. and 40% humidity
# [13] = Amount of VC 0, day 7, 25° C. and 40% humidity
# [14] = Amount of VC 0, day 15, 25° C. and 40% humidity
# [15] = Amount of VC 0, day 30, 25° C. and 40% humidity
# [16] = Amount of VC 0, day 60, 25° C. and 40% humidity
# [17] = Amount of VC 20%, day 0, 25° C. and 40% humidity
# [18] = Amount of VC 20%, day 7, 25° C. and 40% humidity
# [19] = Amount of VC 20%, day 15, 25° C. and 40% humidity
# [20] = Amount of VC 20%, day 30, 25° C. and 40% humidity
# [21] = Amount of VC 20%, day 60, 25° C. and 40% humidity
# [22] = Amount of VC 100%, day 0, 25° C. and 40% humidity
# [23] = Amount of VC 100%, day 7, 25° C. and 40% humidity
# [24] = Amount of VC 100%, day 15, 25° C. and 40% humidity
# [25] = Amount of VC 100%, day 30, 25° C. and 40% humidity
# [26] = Amount of VC 100%, day 60, 25° C. and 40% humidity
# [27] = Amount of VC 500%, day 0, 25° C. and 40% humidity
# [28] = Amount of VC 1000%, day 0, 25° C. and 40% humidity
# [29] = Amount of VC 10000%, day 0, 25° C. and 40% humidity
compound,measurement,setting,value
CN1C2CNC3=NC(N)=NCC31N(c1ccc(C(=O)O)cc1)C2 (centres unmarked) [JK1303],anatomical finding in the renal tubules,mice [1],a large number of vacuoles
same,renal toxicity finding,mice [1],severe renal tubular necrosis
CN1C2CNC3=NC(N)=NCC31N(c1ccc(C(=O)NC(CCC(=O)O)C(=O)O)cc1)C2 (centres unmarked) [JK12A],anatomical findings in liver and kidney,mice [2],no significant changes
same,effect on T lymphocyte proliferation,[3],significant inhibitory effect
same,T cell proliferation Comprehensive evaluation Percent enhancement/inhibition,[3]; [6],−8%
same,T lymphocyte Stimulus with Con A Mean CPM,[3]; [6],40459 CPM
same,T cell proliferation Comprehensive evaluation Percent enhancement/inhibition,[3]; [7],−68%
same,T lymphocyte Stimulus with Con A Mean CPM,[3]; [7],14073 CPM
same,T cell proliferation Comprehensive evaluation Percent enhancement/inhibition,[3]; [8],−60%
same,T lymphocyte Stimulus with Con A Mean CPM,[3]; [8],17590 CPM
same,T cell proliferation Comprehensive evaluation Percent enhancement/inhibition,[3]; [9],−42%
same,T lymphocyte Stimulus with Con A Mean CPM,[3]; [9],25507 CPM
same,T cell proliferation Comprehensive evaluation Percent enhancement/inhibition,[3]; Concentration determined 6.4 M,−30%
same,T lymphocyte Stimulus with Con A Mean CPM,[3]; Concentration determined 6.4 M,30784 CPM
same,T cell proliferation Comprehensive evaluation Percent enhancement/inhibition,[3]; [10],−18%
same,T lymphocyte Stimulus with Con A Mean CPM,[3]; [10],36061 CPM
same,T cell proliferation Comprehensive evaluation Percent enhancement/inhibition,[3]; Concentration determined […],−1%
same,T lymphocyte Stimulus with Con A Mean CPM,[3]; Concentration determined […],43537 CPM
same,Cell survival rate,T lymphocyte; [11],73%
same,Mean OD,T lymphocyte; [11],0.089
same,Cell survival rate,T lymphocyte; [7],75%
same,Mean OD,T lymphocyte; [7],0.052
same,Cell survival rate,T lymphocyte; [8],59%
same,Mean OD,T lymphocyte; [8],0.073
same,Cell survival rate,T lymphocyte; [9],62%
same,Mean OD,T lymphocyte; [9],0.076
same,Cell survival rate,T lymphocyte; Concentration determined 6.4 M,84%
same,Mean OD,T lymphocyte; Concentration determined 6.4 M,0.103
same,Cell survival rate,T lymphocyte; [10],92%
same,Mean OD,T lymphocyte; [10],0.113
same,Cell survival rate,T lymphocyte; Concentration determined […],89%
same,Mean OD,T lymphocyte; Concentration determined […],0.109
(6S)-5-methyl tetrahydrofolic acid calcium salt [Example 11],(6S)-5-methyl tetrahydrofolic acid calcium salt content,[12],99.95%
same,JK12A content,[12],0.03%
same,(6S)-5-methyl tetrahydrofolic acid calcium salt content,[13],99.90%
same,JK12A content,[13],0.06%
same,(6S)-5-methyl tetrahydrofolic acid calcium salt content,[14],99.85%
same,JK12A content,[14],0.12%
same,(6S)-5-methyl tetrahydrofolic acid calcium salt content,[15],99.63%
same,JK12A content,[15],0.25%
same,(6S)-5-methyl tetrahydrofolic acid calcium salt content,[16],99.40%
same,JK12A content,[16],0.46%
same,(6S)-5-methyl tetrahydrofolic acid calcium salt content,[17],99.95%
same,JK12A content,[17],0.03%
same,(6S)-5-methyl tetrahydrofolic acid calcium salt content,[18],99.94%
same,JK12A content,[18],0.04%
same,(6S)-5-methyl tetrahydrofolic acid calcium salt content,[19],99.89%
same,JK12A content,[19],0.08%
same,(6S)-5-methyl tetrahydrofolic acid calcium salt content,[20],99.71%
same,JK12A content,[20],0.17%
same,(6S)-5-methyl tetrahydrofolic acid calcium salt content,[21],99.50%
same,JK12A content,[21],0.22%
same,(6S)-5-methyl tetrahydrofolic acid calcium salt content,[22],99.95%
same,JK12A content,[22],0.03%
same,(6S)-5-methyl tetrahydrofolic acid calcium salt content,[23],99.94%
same,JK12A content,[23],0.03%
same,(6S)-5-methyl tetrahydrofolic acid calcium salt content,[24],99.90%
same,JK12A content,[24],0.05%
same,(6S)-5-methyl tetrahydrofolic acid calcium salt content,[25],99.90%
same,JK12A content,[25],0.05%
same,(6S)-5-methyl tetrahydrofolic acid calcium salt content,[26],99.86%
same,JK12A content,[26],0.10%
same,(6S)-5-methyl tetrahydrofolic acid calcium salt content,[27],99.95%
same,JK12A content,[27],0.03%
same,(6S)-5-methyl tetrahydrofolic acid calcium salt content,"Amount of VC 500%, day 7, 25° C. and 40% humidity",100.00%
same,(6S)-5-methyl tetrahydrofolic acid calcium salt content,"Amount of VC 500%, day 15, 25° C. and 40% humidity",100.00%
same,(6S)-5-methyl tetrahydrofolic acid calcium salt content,"Amount of VC 500%, day 30, 25° C. and 40% humidity",99.98%
same,(6S)-5-methyl tetrahydrofolic acid calcium salt content,"Amount of VC 500%, day 60, 25° C. and 40% humidity",99.96%
same,(6S)-5-methyl tetrahydrofolic acid calcium salt content,[28],99.95%
same,JK12A content,[28],0.03%
same,(6S)-5-methyl tetrahydrofolic acid calcium salt content,"Amount of VC 1000%, day 7, 25° C. and 40% humidity",100.00%
same,(6S)-5-methyl tetrahydrofolic acid calcium salt content,"Amount of VC 1000%, day 15, 25° C. and 40% humidity",100.00%
same,(6S)-5-methyl tetrahydrofolic acid calcium salt content,"Amount of VC 1000%, day 30, 25° C. and 40% humidity",100.00%
same,(6S)-5-methyl tetrahydrofolic acid calcium salt content,"Amount of VC 1000%, day 60, 25° C. and 40% humidity",100.00%
same,(6S)-5-methyl tetrahydrofolic acid calcium salt content,[29],99.95%
same,JK12A content,[29],0.03%
same,(6S)-5-methyl tetrahydrofolic acid calcium salt content,"Amount of VC 10000%, day 7, 25° C. and 40% humidity",100.00%
same,(6S)-5-methyl tetrahydrofolic acid calcium salt content,"Amount of VC 10000%, day 15, 25° C. and 40% humidity",100.00%
same,(6S)-5-methyl tetrahydrofolic acid calcium salt content,"Amount of VC 10000%, day 30, 25° C. and 40% humidity",100.00%
same,(6S)-5-methyl tetrahydrofolic acid calcium salt content,"Amount of VC 10000%, day 60, 25° C. and 40% humidity",100.00%
calcium (6S)-5-methyltetrahydrofolate,response of mice,mice [4]; dosage of 15000 mg/kg,no abnormal response
same,maximum tolerable dose (MTD),mice [4]; mice,greater than 15 g/kg
same,LD50 (median lethal dose),[5],2000 mg/kg
